Like-named read-outs stand apart in the source and are kept apart here. Where a SMILES comes first, the peptide text is derived from it. The star is where a group is joined. CH2Cl = ClC*

The values below come from patent US20020114734A1, “Microplate thermal shift assay apparatus for ligand development and multi-variable protein chemistry optimization” (priority 1996, published 2002).

The test system of assay [1] is D(II) FGF receptor 1. Kind of assay: Microplate thermal shift screen of biochemical conditions, D(II) FGF receptor 1 stability. The note with it: for effect on D(II) FGF receptor 1 stability: additives in 50 mM MOPS pH 7, 0.1 M NaCl. Details: species or system human. Here is the method:
The microplate thermal shift assay was used to simultaneously screen the effects of multiple biochemical conditions on D(II) FGF receptor 1 stability. The assays were performed by mixing 1 μL of D(II) FGFR1 (from a 500 μM concentrated stock in 50 mM HEPES pH 7.5) with 4 μL of each biochemical condition in wells of a 96-well polycarbonate microtiter plate. Final protein concentration after mixing was 100 μM and final 1,8-ANS concentration was 200 μM. Biochemical conditions were tested as follows: The pH's tested were 5 (Na acetate), 6 (MES), 7 (MOPS), 8 (HEPES), and 9 (CHES), with final buffer concentrations of 50 mM.
The salt concentrations tested were 0.1 or 0.5 M NaCl. Additives were tested in 50 mM MOPS, pH 7, 0.1 M NaCl, at final concentrations of 1 mM (EDTA, dithiothreitol), 10 mM (CaCl2, MgCl2, MgSO4, NiSO4), 50 mM (arginine), 100 mM ((NH4)2SO4, LiSO4, Na2SO4, ZnSO4), 5% w/v (polyethylene glycol 6000), and 10% v/v glycerol.
Thermal denaturation profiles were generated as previously described for thrombin, aFGF, Factor D, and Factor Xa, by incremental heating of the microplate followed by a fluorescence reading after each temperature increase. Data were analyzed by non-linear least squares fitting as described previously.

Assay [2] addresses T1, human α-thrombin (Homo sapiens, UniProt P00734).
T1 construct: A stock human α-thrombin solution; purchased Enzyme Research Labs
Kind of assay: Microplate thermal shift screen of biochemical conditions, thrombin stability. The following applies: for effect on human α-thrombin stability: 10% glycerol, 10 mM dithiothreitol. Here is the method: The microplate thermal shift assay was used, with four different fluorophores, to simultaneously screen the effects of multiple pH values, sodium chloride concentrations, and reduction-oxidation compounds on human α-thrombin stability. […] Reaction volume was 100 μL.

The test system of assay [3] is human urokinase-type plasminogen activator (u-PA). Put plainly: Miniaturized (5 μL) microplate thermal shift assay of urokinase. The class given is binding. The note with it: CMK-u-PA complex, MOPS pH 7, NaCl, 1,8-ANS. The text has this: Another target molecule analyzed was human urokinase-type plasminogen activator (u-PA). U-PA enzymatically converts plasminogen into the active protease plasmin. U-PA is involved in tissue remodeling, cellular migration and metastases. The gene for u-PA was obtained from ATCC (Rockville, Md.) and modified to appropriately express active enzyme in E. coli. u-PA was cloned, overexpressed in E. coli, and purified using procedures similar to those described by Winkler et al. (Biochemistry 25:4041-4045 (1986)). […] The experiment was performed in the miniaturized format in 5 μL well volume. One μL of concentrated CMK-u-PA (13 g/L, 371.4 μM) was added to 4 μL of 62.5 mM MOPS, pH 7, 125 mM NaCl, and 250 μM 1,8-ANS, in multiple wells of a 96-well polycarbonate V-bottom microtiter plate. A thermal denaturation curve was generated as previously described for thrombin, aFGF, D(II)FGFR1, Factor D, and Factor Xa, by incremental heating of the microplate followed by a fluorescence reading after each temperature increase.

Assay [4] concerns human urokinase. Kind of assay: Microplate thermal shift screen of biochemical conditions, urokinase stability. The following applies: 0.1 or 0.5 M NaCl; 10% glycerol. Here is the method: The microplate thermal shift assay was used to simultaneously screen the effects of multiple biochemical conditions on human urokinase stability. This experiment was performed by mixing 1 μL of urokinase (from a […] concentrated stock in 20 mM Tris pH 8) with 4 μL of each biochemical condition in wells of a 96-well polycarbonate microtiter plate. Final protein concentration after mixing was 74 μM and final 1,8-ANS concentration was 200 μM. Biochemical conditions were tested as follows: The pH's tested were 5 (acetate), 6 (MES), 7 (MOPS), 8 (HEPES), and 9 (CHES) with final buffer concentrations of 50 mM. The salt concentrations tested were 0.1 or 0.5 M NaCl. Glycerol was tested at 10% v/v in 50 mM MOPS, pH 7, 0.1 M NaCl.
Thermal denaturation profiles were generated as previously described for thrombin, aFGF, Factor D, D(II) FGFR1, and Factor Xa, by incremental heating of the microplate followed by a fluorescence reading after each temperature increase. Data were analyzed by non-linear least squares fitting as described previously.

Assay [5] deals with thrombin (Homo sapiens, UniProt P00734). The note with it: 5 mM Tris buffer pH 8.0, 0.1% PEG, 25° C.; read-out: Kd of Na+ binding site; cited from earlier work.
For assay [6], the target named is T2, acidic fibroblast growth factor (aFGF) (Homo sapiens, UniProt P05230).
T2 construct: host or cells: E. coli
T2 sequence (P05230 whole entry, species assumed): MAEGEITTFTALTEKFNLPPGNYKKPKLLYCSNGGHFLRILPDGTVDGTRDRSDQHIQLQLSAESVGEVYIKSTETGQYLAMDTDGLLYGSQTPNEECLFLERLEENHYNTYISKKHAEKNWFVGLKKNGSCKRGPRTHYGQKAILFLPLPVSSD
Put plainly: Microplate thermal shift assay for ligands binding to aFGF, turbidity as signal. An excerpt: The second therapeutic receptor tested in the microplate thermal shift assay was acidic fibroblast growth factor (aFGF), a growth factor that plays a key role in angiogenesis (Folkman, J. et al., J. Biol. Chem. 267:10931-10934 (1992)). A synthetic gene for this protein was purchased from R&D Systems (Minneapolis, Minn.), and was cloned and expressed in E. coli using methods similar to those described for basic fibroblast growth factor (bFGF) (Thompson, L. D. et al., Biochemistry 33:3831-3840 (1994); Pantoliano, M. W. et al., Biochemistry 33:10229-10248 (1994); Springer, B. A. et al., J. Biol. Chem. 269:26879-26884 (1994)). Recombinant aFGF was then purified by heparin-sepharose affinity chromatography as described (Thompson, L. D. et al., Biochemistry 33:3831-3840 (1994)). aFGF is also known to bind heparin/heparan, which is a cofactor for mitogenic activity. […] A microplate thermal assay of these compounds was set up in a way similar to that described above for human α-thrombin. […] The affinity constants covered a fairly broad range of binding affinities, with pentosan PSO4 showing the highest affinity.

The target in assay [7] is T3, heparin binding site of basic fibroblast growth factor (bFGF) (Homo sapiens, UniProt P09038).
T3 construct: host or cells: E. coli
T3 sequence (P09038 134-288, species assumed): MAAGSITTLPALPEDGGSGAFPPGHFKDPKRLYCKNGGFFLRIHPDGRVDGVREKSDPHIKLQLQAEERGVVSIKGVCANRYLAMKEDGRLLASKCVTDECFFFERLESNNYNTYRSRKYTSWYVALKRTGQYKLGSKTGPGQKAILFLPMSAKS
Kind of assay: Microplate thermal shift assay for ligands binding to bFGF. The following applies: read-out: binding affinity. The text has this: The microplate thermal shift assay was used to assess ligands for binding to the heparin binding site of basic fibroblast growth factor (bFGF). The gene for bFGF was purchased from R&D Systems and was cloned and expressed in E. coli as previously described (Thompson, L. D. et al., Biochemistry 33:3831-3840 (1994); Pantoliano, M. W. et al., Biochemistry 33:10229-10248 (1994); Springer, B. A. et al., J. Biol. Chem. 269:26879-26884 (1994)).

Assay [8] addresses T4, D(II) FGFR1 (Homo sapiens, UniProt P11362).
T4 construct: hexa-histidine (N); made in house
T4 sequence (P11362 158-246 limits assumed): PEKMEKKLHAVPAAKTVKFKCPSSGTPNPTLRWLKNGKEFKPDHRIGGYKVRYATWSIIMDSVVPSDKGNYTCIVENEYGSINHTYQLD
Kind of assay: Miniaturized (10 μL) microplate thermal shift assay. The class given is binding. The protocol:
Recombinant D(II) FGFR1 was purified from inclusion bodies and purified by affinity chromatography on heparin sepharose. A stock solution of D(II) FGFR1 (15 mg/mL; 1.1 mM) was diluted to 50 μM in assay buffer (50 mM Hepes, pH 7.5, 0.1 M NaCl). The assay volume was 10 μL and the concentration of 1,8-ANS was 250 μM.

Regarding `O[C@H](CS)[C@H](O)CS` (racemic) [dithiothreitol], the “effect on D(II) FGF receptor 1 stability” value in assay [1] was “destabililzed the protein”. Further, the “effect on human α-thrombin stability” value in assay [2] is reported as “destabilizing effect”.

Consider `N.N.O=S(=O)(O)O` [(NH4)2SO4], for which the “effect on D(II) FGF receptor 1 stability” value in assay [1] is “stabilizing effects”.

Regarding `N=C(N)NCCC[C@H](NC(=O)CNC(=O)[C@@H](N)CCC(=O)O)C(=O)CCl` [CMK, glu-gly-arg-chloromethylketone] (H-Glu-Gly-Arg-CH2Cl), the Tm in assay [3] came to 81 °C.

For `O=S(=O)([O-])[O-].[Li+].[Li+]` [Li2SO4], in assay [1], the “effect on D(II) FGF receptor 1 stability” value is “stabilizing effects”.

For `O=S(=O)([O-])[O-].[Mg+2]` [MgSO4], the “effect on D(II) FGF receptor 1 stability” value was “stabilized the protein” in assay [1] and “stabilizing effects” in assay [1] (listed as Mg2SO4).

On to `O=S(=O)([O-])[O-].[Na+].[Na+]` [Na2SO4], for which, in assay [1], the “effect on D(II) FGF receptor 1 stability” value is reported as “stabilizing effects”.

As to `[Cl-].[Na+]` [NaCl, sodium chloride], the figures for the ΔTm entry in assay [1] (NaCl concentration increased from 0.1 to 0.5 M) and in assay [2] (NaCl concentration increased from 0 to 0.5 M) were “about 5 °C” and “about 12 °C”, respectively. Moreover, the “effect on human urokinase stability” value in assay [4] is “stabilized the protein”. Moreover, the Kd in assay [5] was 30000 ± 3000 µM; in assay [2] (near the Tm (53° C.), 50 mM Hepes pH 8.0, zero and 0.10 M NaCl, read-out: NaCl binding (estimated with equation (1))), roughly 6000 µM.

As to `Cc1ccc(C(=O)Nc2ccc(S(=O)(=O)O)c3cc(S(=O)(=O)O)cc(S(=O)(=O)O)c23)cc1NC(=O)c1cccc(NC(=O)Nc2cccc(C(=O)Nc3cc(C(=O)Nc4ccc(S(=O)(=O)O)c5cc(S(=O)(=O)O)cc(S(=O)(=O)O)c45)ccc3C)c2)c1` [Suramin, suramin], the Tm in assay [6] (aFGF/ligand, aFGF 0.25 mg/mL, ligand 47-200 μM, turbidity) was 330.15 ° K. Also, the Kd in assay [6] (equation (1), estimated ΔHu 60.0 kcal/mole, ΔCpu 0.95 kcal/mole-°K, read-out: Kd at Tm) was 3.22 µM; in assay [6] (equation (3), ΔHL estimated −10.0 kcal/mole, read-out: Kd at 298° K Observed), 0.622 µM; in assay [7] it was 3.5 µM. Moreover, in assay [6] (relative to aFGF alone (317.15 ° K)), the ΔTm amounted to 13.0 ° K.

In the case of `O=C(NCCCNC(=O)[C@H](OS(=O)(=O)O)[C@@H](OS(=O)(=O)O)[C@H](O[C@@H]1O[C@H](COS(=O)(=O)O)[C@H](OS(=O)(=O)O)[C@H](OS(=O)(=O)O)[C@H]1OS(=O)(=O)O)[C@@H](COS(=O)(=O)O)OS(=O)(=O)O)[C@H](OS(=O)(=O)O)[C@@H](OS(=O)(=O)O)[C@H](O[C@@H]1O[C@H](COS(=O)(=O)O)[C@H](OS(=O)(=O)O)[C@H](OS(=O)(=O)O)[C@H]1OS(=O)(=O)O)[C@@H](COS(=O)(=O)O)OS(=O)(=O)O` [aprosulate], in assay [8] (aprosulate 300 uM), the “unfolding transition (Tm)” value is “about 320 K”. Also, in assay [8] (aprosulate 300 uM, 50 μM D(II) FGFR1, 10 μL), the “increase of unfolding transition” value is “about 8 K”. In addition, in assay [8] (estimate, read-out: binding affinity at the Tm), the Kd is roughly 18 µM.

Regarding `N=C(N)NCCC[C@H](N)C(=O)O` [arginine], the “effect on D(II) FGF receptor 1 stability” value in assay [1] is “stabilized the protein”.

In the case of `OCC(O)CO` [glycerol], in assay [1], the “effect on D(II) FGF receptor 1 stability” value is on record as “stabilized the protein”. Further, the “effect on human urokinase stability” value in assay [4] is recorded as “stabilized the protein”. The “effect on human α-thrombin stability” value in assay [2] is given as “stabilizing effect”.
